According to US6586416B2, “Methods of treatment using an epithelial sodium channel blocker and an inhibitor of the mineralocorticoid receptor” (priority 2001, dated 2003):

Key:
Assay type in all cases: cell-based
ENaC = target: T1, ENaC (Homo sapiens, UniProt P37088+P51168+P51170); assay: Single channel patch clamp (outside-out patches) of human lymphocytes
T1 construct: Human and canine lymphocytes were isolated from peripheral blood samples by differential centrifugation over ficoll paque; endogenous in cells; host or cells: human peripheral blood lymphocytes
T1 sequence (P37088 1-669): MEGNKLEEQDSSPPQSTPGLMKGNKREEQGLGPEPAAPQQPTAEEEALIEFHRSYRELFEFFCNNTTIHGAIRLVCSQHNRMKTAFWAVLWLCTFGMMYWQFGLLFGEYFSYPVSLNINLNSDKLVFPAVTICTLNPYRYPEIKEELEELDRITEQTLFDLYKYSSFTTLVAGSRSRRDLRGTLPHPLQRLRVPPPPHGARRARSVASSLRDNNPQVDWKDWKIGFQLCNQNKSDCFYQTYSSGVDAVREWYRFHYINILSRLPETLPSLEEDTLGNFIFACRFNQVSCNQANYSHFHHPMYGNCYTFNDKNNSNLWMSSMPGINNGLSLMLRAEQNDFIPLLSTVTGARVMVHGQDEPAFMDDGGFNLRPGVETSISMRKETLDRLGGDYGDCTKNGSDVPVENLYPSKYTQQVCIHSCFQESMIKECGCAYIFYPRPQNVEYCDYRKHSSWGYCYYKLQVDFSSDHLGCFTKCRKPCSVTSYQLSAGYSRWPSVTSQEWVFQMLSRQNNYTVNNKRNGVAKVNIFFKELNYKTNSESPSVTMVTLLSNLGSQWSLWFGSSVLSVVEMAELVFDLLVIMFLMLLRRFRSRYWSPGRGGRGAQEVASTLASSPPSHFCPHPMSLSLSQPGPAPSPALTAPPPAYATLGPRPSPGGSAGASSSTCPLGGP
T1 sequence (P51168 1-640): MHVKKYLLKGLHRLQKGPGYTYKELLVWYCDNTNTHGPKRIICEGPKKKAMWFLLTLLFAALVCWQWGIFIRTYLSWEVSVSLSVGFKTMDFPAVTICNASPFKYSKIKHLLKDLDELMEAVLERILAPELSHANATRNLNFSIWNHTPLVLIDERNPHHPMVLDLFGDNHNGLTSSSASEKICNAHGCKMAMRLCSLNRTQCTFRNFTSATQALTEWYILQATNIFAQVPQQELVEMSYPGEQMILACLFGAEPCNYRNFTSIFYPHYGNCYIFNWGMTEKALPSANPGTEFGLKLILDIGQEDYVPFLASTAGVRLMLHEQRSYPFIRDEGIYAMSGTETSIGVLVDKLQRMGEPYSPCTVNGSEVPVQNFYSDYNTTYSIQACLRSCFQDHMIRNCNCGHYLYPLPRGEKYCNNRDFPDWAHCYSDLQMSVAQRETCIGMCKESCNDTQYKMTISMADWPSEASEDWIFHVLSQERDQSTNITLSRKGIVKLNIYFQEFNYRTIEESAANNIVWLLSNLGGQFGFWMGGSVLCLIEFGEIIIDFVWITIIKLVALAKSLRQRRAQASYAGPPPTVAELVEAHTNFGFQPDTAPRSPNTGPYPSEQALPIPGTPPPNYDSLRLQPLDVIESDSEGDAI
T1 sequence (P51170 1-649): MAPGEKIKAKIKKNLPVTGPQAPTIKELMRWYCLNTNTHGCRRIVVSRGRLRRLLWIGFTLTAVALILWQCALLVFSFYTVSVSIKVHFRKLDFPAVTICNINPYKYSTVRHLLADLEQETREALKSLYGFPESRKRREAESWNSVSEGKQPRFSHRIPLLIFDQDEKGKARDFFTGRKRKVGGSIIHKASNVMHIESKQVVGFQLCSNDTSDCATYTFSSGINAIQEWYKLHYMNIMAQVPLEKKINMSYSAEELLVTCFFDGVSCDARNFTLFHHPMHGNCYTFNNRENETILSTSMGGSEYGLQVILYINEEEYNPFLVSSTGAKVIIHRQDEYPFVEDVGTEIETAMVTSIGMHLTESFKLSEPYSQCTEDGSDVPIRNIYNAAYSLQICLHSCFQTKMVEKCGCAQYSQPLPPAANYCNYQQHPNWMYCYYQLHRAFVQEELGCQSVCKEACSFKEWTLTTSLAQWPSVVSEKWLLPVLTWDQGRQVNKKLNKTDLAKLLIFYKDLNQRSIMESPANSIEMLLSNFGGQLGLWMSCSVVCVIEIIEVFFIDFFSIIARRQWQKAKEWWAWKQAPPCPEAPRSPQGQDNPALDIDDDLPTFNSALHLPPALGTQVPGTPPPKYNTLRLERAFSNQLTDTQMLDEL
Description: Human and canine lymphocytes were isolated from peripheral blood samples by differential centrifugation over ficoll paque (Pharmacia Biotech, Uppsala, Sweden). The cells were washed and re-suspended in serum-free RPMI. Subsequently, suspended cells were placed in the perfusion chamber. Whole-cell patch clamp and testing of aldosterone were carried out using identical techniques and protocols as described for principal cells. Rabbit, rat and mouse lymphocytes were obtained by mincing sections of spleen and manually freeing the cells by agitation. The cell suspensions were then centrifuged over ficoll paque and treated identically to the lymphocytes obtained from peripheral blood. All procedures were carried out under the guidelines for animal use and with institutional board approval for human use.
The “ragged” morphology of the whole-cell currents in principal cells and lymphocytes has generated some concern about the identity of the channels that are activated by aldosterone. To address this concern, single channel characteristics of the sodium conductors expressed by human lymphocytes were studied.
To test the amiloride sensitivity of the single channels, outside-out patches were formed because amiloride only interacts with the outside surface of the channels. A “rundown” phenomena typical of ENaC in the inside-out patch experiments was noted.

[1] = target: T2, amiloride-sensitive sodium conductance (ENaC) (Rattus norvegicus, UniProt P37089+P37090+P37091); assay: Whole-cell patch clamp of rat collecting duct principal cells; conditions: for mean current measured at EK+ (−80 mV): statistical analysis, then vasopressin, then amiloride
T2 construct: Collecting ducts were manually dissected from sagittal slices obtained from 50 gram Sprague Dawley rats and 0.5 Kg New Zealand White rabbits; from tissue; host or cells: principal cells isolated from kidney collecting ducts of Sprague Dawley rats
T2 sequence (P37089 1-698): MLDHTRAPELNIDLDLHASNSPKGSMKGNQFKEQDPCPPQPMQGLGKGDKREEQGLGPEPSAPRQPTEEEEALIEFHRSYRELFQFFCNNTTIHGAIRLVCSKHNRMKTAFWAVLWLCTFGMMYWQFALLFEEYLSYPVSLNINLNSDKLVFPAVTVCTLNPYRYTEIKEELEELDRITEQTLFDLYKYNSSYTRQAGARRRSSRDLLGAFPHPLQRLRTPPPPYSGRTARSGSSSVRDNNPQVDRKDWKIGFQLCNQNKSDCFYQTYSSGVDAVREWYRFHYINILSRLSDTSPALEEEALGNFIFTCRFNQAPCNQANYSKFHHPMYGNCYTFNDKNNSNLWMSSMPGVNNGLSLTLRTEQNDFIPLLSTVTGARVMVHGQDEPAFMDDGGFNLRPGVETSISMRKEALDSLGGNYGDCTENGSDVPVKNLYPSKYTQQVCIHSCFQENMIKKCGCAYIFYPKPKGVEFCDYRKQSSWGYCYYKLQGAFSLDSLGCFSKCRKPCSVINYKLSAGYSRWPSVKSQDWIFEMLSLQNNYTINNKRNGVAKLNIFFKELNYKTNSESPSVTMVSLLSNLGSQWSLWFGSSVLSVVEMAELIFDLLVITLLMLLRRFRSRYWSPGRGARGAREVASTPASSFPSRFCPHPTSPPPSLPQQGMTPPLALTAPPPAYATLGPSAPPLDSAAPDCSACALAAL
T2 sequence (P37090 1-638): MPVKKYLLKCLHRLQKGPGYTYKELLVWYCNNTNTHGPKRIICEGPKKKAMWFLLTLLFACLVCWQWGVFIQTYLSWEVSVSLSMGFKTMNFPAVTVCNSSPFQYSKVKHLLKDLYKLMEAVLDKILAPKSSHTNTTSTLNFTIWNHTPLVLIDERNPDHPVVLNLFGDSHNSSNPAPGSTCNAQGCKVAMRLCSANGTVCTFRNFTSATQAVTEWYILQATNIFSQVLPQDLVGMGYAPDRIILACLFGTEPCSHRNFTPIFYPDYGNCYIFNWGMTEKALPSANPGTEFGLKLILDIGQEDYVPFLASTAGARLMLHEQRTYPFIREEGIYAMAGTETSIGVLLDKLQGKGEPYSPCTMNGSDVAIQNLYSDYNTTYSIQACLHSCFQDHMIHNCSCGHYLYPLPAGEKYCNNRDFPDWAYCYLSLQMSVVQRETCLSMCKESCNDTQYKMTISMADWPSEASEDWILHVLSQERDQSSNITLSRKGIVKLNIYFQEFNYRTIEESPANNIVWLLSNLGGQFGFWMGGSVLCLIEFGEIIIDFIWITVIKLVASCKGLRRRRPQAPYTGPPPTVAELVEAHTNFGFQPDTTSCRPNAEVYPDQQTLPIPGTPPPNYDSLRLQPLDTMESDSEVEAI
T2 sequence (P37091 1-650): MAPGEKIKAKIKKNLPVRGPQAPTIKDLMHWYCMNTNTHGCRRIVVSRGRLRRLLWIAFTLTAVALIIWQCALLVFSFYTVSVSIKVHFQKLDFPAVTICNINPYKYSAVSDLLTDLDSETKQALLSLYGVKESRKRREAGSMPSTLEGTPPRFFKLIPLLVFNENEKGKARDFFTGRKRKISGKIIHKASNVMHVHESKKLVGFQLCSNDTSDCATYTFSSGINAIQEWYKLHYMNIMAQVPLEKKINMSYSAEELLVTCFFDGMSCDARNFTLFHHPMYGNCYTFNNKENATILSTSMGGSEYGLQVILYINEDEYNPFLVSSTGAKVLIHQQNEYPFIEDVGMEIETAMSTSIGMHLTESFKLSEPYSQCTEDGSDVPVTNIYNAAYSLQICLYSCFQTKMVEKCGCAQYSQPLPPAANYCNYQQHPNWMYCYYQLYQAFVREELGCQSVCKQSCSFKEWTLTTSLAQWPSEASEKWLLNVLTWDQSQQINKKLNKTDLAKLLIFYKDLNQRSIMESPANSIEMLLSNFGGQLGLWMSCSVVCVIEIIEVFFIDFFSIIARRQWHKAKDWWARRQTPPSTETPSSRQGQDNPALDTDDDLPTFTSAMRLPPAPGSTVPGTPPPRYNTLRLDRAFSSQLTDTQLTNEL
Description: (§1) Collecting ducts were manually dissected from sagittal slices obtained from 50 gram Sprague Dawley rats and 0.5 Kg New Zealand White rabbits. The dissected collecting ducts were suspended in RPMI 1640 culture medium supplemented with 1.5 mg/ml collagenase A (Boehringer Mannheim, Mannhein, Germany). The collecting ducts were enzymatically digested for 1.5 hours to isolate individual cells. The digested cells were washed in serum-free RPMI and placed in a perfusion chamber mounted on the stage of an inverted microscope. The whole-cell patch clamp configuration was established and initial current measurements were made in un-supplemented RPMI. […] To block the cytosolic mineralocorticoid receptor, some cells were suspended in RPMI supplemented with spironolactone for 1 hour prior to whole-cell patch clamping.
The same protocol was carried out on rabbit principal cells.

[2] = test system: amiloride-sensitive sodium conductance (ENaC); assay: Whole-cell patch clamp of rabbit collecting duct principal cells; conditions: for mean current measured at EK+ (−80 mV): statistical analysis, aldosterone, then vasopressin, then amiloride
Description: as §1
Studies were conducted using both whole cell patch clamp and single channel patch clamp techniques. Whole-cell clamped rabbit principal cells were exposed to 100 nM aldosterone. […] No cells failed both tests. […] ENa+ was approximately +60 mV with the ionic gradients present. The activated current was carried exclusively by sodium. In a separate set of experiments rabbit principal cells were re-suspended in RPMI supplemented with 1 μM spironolactone for 1 hour prior to use for whole-cell patch clamp. This concentration is sufficient to inhibit completely the mineralocorticoid receptor.

## C[C@]12CCC(=O)C=C1CC[C@@H]1[C@@H]2[C@@H](O)C[C@]2(C=O)[C@@H](C(=O)CO)CC[C@@H]12 [aldosterone]
ENaC; cells treated with 100 nM aldosterone
  unitary conductance: unchanged
[1]; aldosterone
  acute effect on principal cells: no acute affect
  mean current measured at EK+ (−80 mV): did not alter the current
[2]; rabbit principal cells pre-treated with 1 μM spironolactone, 100 nM aldosterone
  effect on inward currents with mineralocorticoid receptor inhibition: specifically activated the inward currents
[2]; rabbit principal cells, 100 nM aldosterone in bath
  effect on inward currents at hyperpolarized membrane potential clamp voltages: specific activation of the inward currents
[2]; rabbit principal cells
  mean current measured at EK+ (−80 mV): significantly increased the current
[2]; rabbit principal cells, whole-cell clamp, ATP-supplemented pipette solution
  time to aldosterone-stimulated ENaC activation: within seconds

## N=C(N)NC(=O)c1nc(Cl)c(N)nc1N [amiloride]
ENaC; amiloride 2 μM
  single channel activity: completely abolished
ENaC; amiloride concentration close to IC50 ([…] nM)
  inhibition of single channels: Incomplete inhibitory action
ENaC; cells treated with 100 nM aldosterone, amiloride 2 μM final concentration in bath
  single channel activity: virtually abolished
[1]; aldosterone
  mean current measured at EK+ (−80 mV): restored the current to the basal level
[2]; rabbit principal cells, 2 μM amiloride in the continued presence of aldosterone
  inhibition of aldosterone-activated currents: inhibited completely
[2]; rabbit principal cells
  mean current measured at EK+ (−80 mV): returned the conductance to the basal level

## CC(=O)S[C@@H]1CC2=CC(=O)CC[C@]2(C)[C@H]2CC[C@@]3(C)[C@@H](CC[C@@]34CCC(=O)O4)[C@H]12 [spironolactone]
[2]; rabbit principal cells, 1 μM spironolactone for 1 hour prior to whole-cell patch clamp
  effect on inward currents: no effect on the inward currents

## NC(=O)CC[C@@H]1NC(=O)[C@H](Cc2ccccc2)NC(=O)[C@H](Cc2ccc(O)cc2)NC(=O)[C@@H](N)CSSC[C@@H](C(=O)N2CCC[C@H]2C(=O)N[C@@H](CCCN=C(N)N)C(=O)NCC(N)=O)NC(=O)[C@H](CC(N)=O)NC1=O [vasopressin]
[1]; 250 nM vasopressin after aldosterone
  activation of amiloride sensitive inward currents: acute specific activation of the amiloride sensitive inward currents
[1]; aldosterone
  mean current measured at EK+ (−80 mV): increased it significantly
[2]; rabbit principal cells
  mean current measured at EK+ (−80 mV): had no additional effect
[2]; rabbit principal cells, vasopressin after aldosterone
  further activation of inward currents after ENaC activation by aldosterone: did not activate the inward currents any further
